Data as given in US20220017486A1, “DOCK1-INHIBITING COMPOUND AND USE THEREOF” (KYUSHU UNIVERSITY, NATIONAL UNIVERSITY CORPORATION, priority 2018, published 2022).

Target: T1, DOCK1 (DHR-2 domain) (Homo sapiens, UniProt Q14185)
T1 construct: polypeptide fragments corresponding to the DHR-2 domain of DOCK1 or DOCK2 from mice and humans; Histidine-SUMO (N); made in house; host or cells: E. coli Arctic express (DE3)
T1 sequence (Q14185 1207-1617 limits assumed): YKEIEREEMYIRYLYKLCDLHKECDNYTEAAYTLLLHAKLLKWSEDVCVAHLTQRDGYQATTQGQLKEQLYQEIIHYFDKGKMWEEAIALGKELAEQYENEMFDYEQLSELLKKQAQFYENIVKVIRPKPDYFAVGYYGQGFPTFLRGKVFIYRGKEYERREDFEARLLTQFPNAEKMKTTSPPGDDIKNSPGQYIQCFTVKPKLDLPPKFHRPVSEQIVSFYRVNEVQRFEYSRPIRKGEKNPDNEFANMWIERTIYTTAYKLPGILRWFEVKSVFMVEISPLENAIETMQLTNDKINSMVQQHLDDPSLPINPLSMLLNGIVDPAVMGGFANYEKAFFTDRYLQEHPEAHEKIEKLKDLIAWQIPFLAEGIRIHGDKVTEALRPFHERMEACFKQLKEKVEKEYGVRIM
Assay: In vitro GEF assay: Rac activation by DOCK1 DHR-2 domain
Assay type: biochemical, mice and humans
Conditions: in words, GEF assay
Description: DOCK1 and DOCK2, i.e., DOCK-A subfamily members, both activate Rac by catalyzing the GTP-GDP exchange reaction for Rac via their DHR-2 domains. Therefore, in this Pharmacological Test, the inhibitory effect of the compounds of the present invention on Rac activation by DOCK1 or DOCK2 was assessed in an in vitro GEF assay by using polypeptide fragments corresponding to the DHR-2 domain of DOCK1 or DOCK2 from mice and humans. The in vitro GEF assay was performed using a labeled GTP (Bodipy-FL-GTP, Invitrogen), which has a property of increasing the fluorescence intensity when bound to Rac.
The polypeptide fragments corresponding to the DHR-2 domain of DOCK1 or DOCK2 were prepared by expression in E. coli Arctic express (DE3) cells as N-terminal. Histidine-SUMO tag-fused recombinant proteins, followed by purification by affinity column chromatography on nickel-NTA columns.
Rac was prepared by expression in E. coli BL21 (DE3) cells as an N-terminal GST tag-fused recombinant protein, followed by purification by affinity column chromatography on glutathione-Sepharose columns.
Each of the polypeptide fragments corresponding to the DHR-2 domain of DOCK1 or DOCK2, and a predetermined concentration of each test compound (the compounds of the present invention: 33 types of compounds; and comparative compound: TBOPP) dissolved in DMSO were incubated in a reaction solution A (pH 7.0), which contained 20 mM of MES-NaOH, 150 mM of NaCl, 10 mM of MgCl2, and 20 μM of GDP for 20 minutes at room temperature while being shielded from light to thus prepare GEF pretreated products. The final concentration of DMSO was adjusted to 1 mass % in all of the test samples. For a control test, a GEF pretreated product (control) was prepared by incubation in the same manner using DMSO with no test compounds, instead of the DMSO used above in which each test compound was dissolved.
Separately, Rac was added to the reaction solution A (pH 7.0) to a concentration of 15 μM, and was allowed to stand on for 30 min to form a GDP-Rac complex. Bodipy-FL-GTP was added to a concentration of 3.6 μM to 100 μL of the reaction solution A that contained the thus-prepared GDP-Rac complex, and equilibrated at 30° C. for 2 minutes. After equilibration, 50 μL of the GEF pretreated product prepared as described above was added and reacted at 30° C.
Changes in fluorescence intensity of Bodipy-FL-GTP in the reaction solutions were monitored using an EnSpire spectrofluorometer (Perkin Elmer) (excitation wavelength: 488 nm, fluorescence wavelength: 514 nm). The measured values were corrected so that the fluorescence intensity at the beginning of the reaction (0 sec) was 0. Then, an approximate curve (hyperbola) was obtained by plotting the calculated correction values on the y-axis and the time (t) on the x-axis using GraphPad Prism5 (GraphPad software), and the slope at t=0 to 10 seconds was defined as the initial velocity of the guanine nucleotide exchange reaction. The IC50 value was calculated taking the initial reaction velocity of the control, to which only a solvent (DMSO) was added, as 100%.
Based on the obtained results, columns A and B of FIG. 1, FIG. 2, FIG. 3-1, and FIG. 3-2 show the results evaluating the inhibitory effect on Rac activation by DOCK1 (DHR-2 domain) (IC50 value), and DOCK1-selective inhibitory effect (DOCK1/DOCK2 selectivity) of each test compound. The inhibitory effect on Rac activation by DOCK1 (DHR-2 domain) (IC50 value) was determined from the reaction inhibition curve plotted using values of Rac activation by the DOCK1 DHR-2 domain in the presence of various concentrations of the test compounds, taking the values of the control as 100%. […]

Question: How did the “DOCK1-inhibiting activity compared with TBOPP” value turn out when O=c1ccc(S(=O)(=O)N2CCCC2)cn1CC(O)c1ccc(-c2cccc(C(F)(F)F)c2)cc1O (stereo not drawn) [AK-16, 1-(2-hydroxy-2-(3-hydroxy-3′-(trifluoromethyl)-[1,1′-biphenyl]-4-yl)ethyl)-5-(pyrrolidin-1-yl-sulfonyl)pyridin-2(1H)-one] was run?
Answer: slightly lower DOCK1-inhibiting activity

Question: And the “selective inhibitory activity against DOCK1 compared to TBOPP” value?
Answer: higher selective inhibitory activity against DOCK1

Question: How did the “DOCK1-inhibiting activity compared with TBOPP” value turn out when O=S(=O)(c1cc(CO)n(CC(O)c2ccc(-c3cccc(C(F)(F)F)c3)cc2)c1)N1CCCC1 (stereo not drawn) [HS-14, 2-(2-(hydroxymethyl)-4-(pyrrolidin-1-yl-sulfonyl)-1H-pyrrol-1-yl)-1-(3′-(trifluoromethyl)-[1,1′-biphenyl]-4-yl)ethan-1-ol] was run?
Answer: slightly lower DOCK1-inhibiting activity

Question: What about the “selective inhibitory activity against DOCK1 compared to TBOPP” value of the same compound?
Answer: higher selective inhibitory activity against DOCK1

Same assay, conditions: in words, GEF assay DOCK1 vs DOCK2 DHR-2 domain

Question: How did the “selective inhibitory activity against DOCK1 versus DOCK2” value turn out when O=C(Cn1cc(S(=O)(=O)N2CCCC2)ccc1=O)c1ccc(-c2cccc(C(F)(F)F)c2)cc1O [AK-15, 1-(2-(3-hydroxy-3′-(trifluoromethyl)-[1,1′-biphenyl]-4-yl)-2-oxoethyl)-5-(pyrrolidin-1-yl-sulfonyl)pyridin-2(1H)-one] was run?
Answer: higher selective inhibitory activity against DOCK1 than against DOCK2

Question: How did the “selective inhibitory activity against DOCK1 versus DOCK2” value turn out when CC1(C)Oc2cc(-c3cccc(C(F)(F)F)c3)ccc2C(Cn2cc(S(=O)(=O)N3CCCC3)ccc2=O)O1 (stereo not drawn) [AK-17, 1-((2,2-dimethyl-7-(3-(trifluoromethyl)phenyl)-4H-benzo[d][1,3]dioxin-4-yl)methyl)-5-(pyrrolidin-1-yl-sulfonyl)pyridin-2(1H)-one] was run?
Answer: higher selective inhibitory activity against DOCK1 than against DOCK2

Question: For CCCCCCOc1cc(-c2cccc(C(F)(F)F)c2)ccc1C(=O)C(CCCCCC)n1cc(S(=O)(=O)N2CCCC2)ccc1=O (stereo not drawn) [AK-23, 1-(1-(3-(hexyloxy)-3′-(trifluoromethyl)-[1,1′-biphenyl]-4-yl)-1-oxooctan-2-yl)-5-(pyrrolidin-1-yl-sulfonyl)pyridin-2(1H)-one], which “selective inhibitory activity against DOCK1 versus DOCK2” value is on record?
Answer: higher selective inhibitory activity against DOCK1 than against DOCK2

Question: Which “selective inhibitory activity against DOCK1 versus DOCK2” value does the source give for O=C(Cn1cc(S(=O)(=O)N2CCCC2)ccc1=O)c1ccc(-c2cccc(C(F)(F)F)c2)cc1OCCc1ccccc1 [AK-24, 1-(2-oxo-2-(3-phenethoxy-3′-(trifluoromethyl)-[1,1′-biphenyl]-4-yl)ethyl)-5-(pyrrolidin-1-yl-sulfonyl)pyridin-2(1H)-one] here?
Answer: higher selective inhibitory activity against DOCK1 than against DOCK2

Question: Which “selective inhibitory activity against DOCK1 versus DOCK2” value does the source give for O=S(=O)(c1cc(CO)n(CC(O)c2ccc(-c3cccc(C(F)(F)F)c3)cc2)c1)N1CCCC1 (stereo not drawn) [HS-14, 2-(2-(hydroxymethyl)-4-(pyrrolidin-1-yl-sulfonyl)-1H-pyrrol-1-yl)-1-(3′-(trifluoromethyl)-[1,1′-biphenyl]-4-yl)ethan-1-ol] here?
Answer: higher selective inhibitory activity against DOCK1 than against DOCK2

Question: With CC(=O)Oc1cc(-c2ccc(-c3cccc(C(F)(F)F)c3)cc2)cn2cc(S(=O)(=O)N3CCCC3)cc12 [HS-20, 2-(pyrrolidin-1-yl-sulfonyl)-6-(3′-(trifluoromethyl)-[1,1′-biphenyl]-4-yl)-indolizin-8-yl acetate] as the compound, how does the “selective inhibitory activity against DOCK1 versus DOCK2” value read?
Answer: higher selective inhibitory activity against DOCK1 than against DOCK2

Question: For O=C(Cn1cc(S(=O)(=O)N2CCC(c3ccc(-c4ccccc4)cc3)CC2)ccc1=O)c1ccc(-c2cccc(C(F)(F)F)c2)cc1 [KS-43, 5-((4-([1,1′-biphenyl]-4-yl)piperidin-1-yl)sulfonyl)-1-(2-oxo-2-(3′-(trifluoromethyl)-[1,1′-biphenyl]-4-yl)ethyl)pyridin-2(1H)-one], which “selective inhibitory activity against DOCK1 versus DOCK2” value is on record?
Answer: higher selective inhibitory activity against DOCK1 than against DOCK2

Question: For O=C(Cn1cc(S(=O)(=O)N2CCC(c3ccc(-c4ccc5c(c4)Cc4ccccc4-5)cc3)CC2)ccc1=O)c1ccc(-c2cccc(C(F)(F)F)c2)cc1 [KS-46, 5-((4-(4-(9H-fluoren-2-yl)phenyl)piperidin-1-yl)sulfonyl)-1-(2-oxo-2-(3′-(trifluoromethyl)-[1,1′-biphenyl]-4-yl)ethyl)pyridin-2(1H)-one], which “selective inhibitory activity against DOCK1 versus DOCK2” value is on record?
Answer: higher selective inhibitory activity against DOCK1 than against DOCK2

Question: How did the “selective inhibitory activity against DOCK1 versus DOCK2” value turn out when O=C(Cn1cc(S(=O)(=O)N2CCC(c3ccc(-c4c5ccccc5cc5ccccc45)cc3)CC2)ccc1=O)c1ccc(-c2cccc(C(F)(F)F)c2)cc1 [KS-47, 5-((4-(4-(anthracen-9-yl)phenyl)piperidin-1-yl)sulfonyl)-1-(2-oxo-2-(3′-(trifluoromethyl)-[1,1′-biphenyl]-4-yl)ethyl)pyridin-2(1H)-one] was run?
Answer: higher selective inhibitory activity against DOCK1 than against DOCK2

Question: Which “selective inhibitory activity against DOCK1 versus DOCK2” value does the source give for CN(C)C(=O)c1cc(S(=O)(=O)N2CCCC2)cn1CC(=O)c1ccc(-c2cccc(C(F)(F)F)c2)cc1 [RT-23, N,N-dimethyl-1-(2-oxo-2-(3′-(trifluoromethyl)-[1,1′-biphenyl]-4-yl)ethyl)-4-(pyrrolidin-1-yl-sulfonyl)-1H-pyrrole-2-carboxamide] here?
Answer: higher selective inhibitory activity against DOCK1 than against DOCK2

Tested on: mouse lung carcinoma cell line (3LL cells)
Assay: Cell invasion inhibition assay (Matrigel invasion chamber)
Assay type: cell-based
Conditions: in words
Description: In this Pharmacological Test, the inhibitory effect of each test compound on cell invasion response was evaluated using a mouse lung carcinoma cell line (3LL cells), a mouse pancreatic cancer cell line (PANC02 cells), and a human breast cancer cell line (MDA-MB-157 cells). Of these, the mouse lung carcinoma cell line (3LL) is a cancer cell line with mutant Ras (K-Ras (G12C)), and the human breast cancer cell line (MDA-MB-157) is a cancer cell line with mutant Rac (Rac1 (P29S)). The experiments were performed in BD BioCoat Matrigel invasion chambers (BD Biosciences).
Specifically, an upper chamber with a Matrigel-coated membrane insert (8 μm pores) at the bottom was equilibrated with DMEM (serum-free medium) for 120 minutes. Thereafter, 300 μL of a suspension of a cancer cell line in DMEM (serum-free) was placed in the upper chamber while 500 μL of DMEM (with 10 mass % FCS) was placed in the lower chamber. Each test compound dissolved in DMSO at a predetermined concentration was added to both the culture media in the upper and lower chambers. As a control, DMSO alone was added to both the culture media in the upper and lower chambers. In all of the experiments, the final DMSO concentration in the culture media was adjusted to 0.2 mass %.
The resulting products were cultured under 5% CO2 at 37° C. for 22 hours (3LL and PANC02 cells) or 48 hours (MDA-MB-157 cells). Then, the upper chamber was removed, and the culture medium was removed. Thereafter, non-invading cells remaining in the upper chamber were removed using a cotton swab, and the cells remaining outside the bottom of the upper chamber (cells that had invaded into the Matrigel, and passed through the membrane insert) were stained with Diff-Quick (Sysmex). After staining, the membrane inserts with Matrigel were cut out using a scalpel to prepare slides, and the number of invading cells was counted under an optical microscope.
The results were evaluated based on percent cell invasion (%: Invasion) and percent inhibition (%: Inhibition). The percent cell invasion was obtained by converting the number of invading cells in the presence of each test compound into a percentage, taking the number of invading cells in the control test, in which DMSO was added alone, as 100%; and the percent inhibition was obtained by deducting the percent cell invasion from 100.

Question: How did the “percent cell invasion inhibition compared with TBOPP” value turn out when CCC(=O)c1cc(S(=O)(=O)N2CCCC2)cn1CC(=O)c1ccc(-c2cccc(C(F)(F)F)c2)cc1 [HS-17, 1-(1-(2-oxo-2-(3′-(trifluoromethyl)-[1,1′-biphenyl]-4-yl)ethyl)-4-(pyrrolidin-1-yl-sulfonyl)-1H-pyrrol-2-yl)propan-1-one] was run?
Answer: higher percent cell invasion inhibition than TBOPP
